Here are results for 17 molecules from US4262128A, “Nitrogen heterocycles” (Burroughs Wellcome Co., priority 1976, dated 1981).

In data set [1] the test system is male normotensive rats Wistar (Charles River) strain. Kind of data set: Cardiovascular effects in rats (fall in blood pressure, anaesthetised normotensive rats). The class given is in vivo, rat. The settings on record: i.v. Here is the method: Male normotensive rats Wistar (Charles River) strain, (250-350 g) were anesthetised (chloroform) prior to cannulation of the left femoral vein and anaesthesia maintained by intravenous chloralose (60 mg/kg). Pulsatile blood pressure was recorded from the left femoral artery with an electronic transducer (Bell and Howell Type 4-327 L221) and integrated heart rate was measured with a cardiotachometer triggered from the arterial pressure waves.
The test compound was administered as a solution in physiological saline by intravenous injection via the femoral cannula. The responses recorded were allowed to return to the preinjection levels between successive administrations.

The subject of data set [2] is histamine-induced broncho-constriction. Kind of data set: Histamine-induced broncho-constriction. The class given is in vivo, guinea-pig.
The next data set relates to vascular smooth muscle. Kind of data set: Relaxation of vascular smooth muscle. The settings on record: similar to prostaglandin A and E series; general statement.
Data set [3] has as its system human platelet rich plasma (PRP). Put plainly: Inhibition of ADP-stimulated platelet aggregation (Born aggregometer). The class given is cell-based. As to the method:
Aggregation of platelets in 1 ml. of fresh humam platelet rich plasma (PRP) was monitored in a Born aggregometer.
The compound to be tested was added to the PRP at the desired concentration, and the resulting mixture incubated at 37° C. for 1 minute after which platelet aggregation was stimulated by the addition of adenosine diphosphate (ADP) to a concentration of 5 μM.
The anti-aggregatory effect of the compound was assessed by measuring the percentage inhibition of platelet aggregation in the presence of the compound as compared when it was completely absent.

In a further data set the test system is rat. Kind of data set: Cardiovascular effects in the rat (blood pressure and heart rate, with and without propranolol or atropine). It is filed as in vivo.
For data set [4], the system named is aspirin-induced gastric ulceration. Put plainly: Aspirin-induced gastric ulceration / lesions in rats. It is filed as in vivo, rat. The settings on record: for reduction of aspirin-induced gastric lesions: general statement, no dose.
In data set [5] the test system is pentagastrin-induced gastric acid secretion. Put plainly: Pentagastrin-induced gastric acid secretion in rats. The class given is in vivo, rat.
Another data set relates to dogs. Put plainly: Urine volume in dogs, intravenous infusion. It is filed as in vivo, dog.
Data set [6] concerns electrically-induced arterial thrombosis. Kind of data set: Electrically-induced arterial thrombosis in anaesthetised rabbits. It is filed as in vivo, rabbit. The conditions noted are these: intravenous infusion 250 μg/min.
Where [7] appears, read: Compound 14 (m.p. 96°-98°) 2 mg/kg i.v. with propranolol 3 mg/kg.
Where [8] appears, read: Compound 14 (m.p. 96°-98°) 2 mg/kg i.v., no propranolol.
[9] abbreviates: Compound 14 (m.p. 96°-98°) 5 mg/kg i.v. with propranolol 3 mg/kg.
[10] abbreviates: Compound 14 (m.p. 96°-98°) 5 mg/kg i.v., no propranolol.

The structures appear in SMILES notation.

In the case of `CCCCC(C)(C)C(O)CCN1C(=O)NC(=O)C1CCCCCCC(=O)O` (stereo not shown) [Compound 9, 5-(6-Carboxyhexyl)-1-(3-hydroxy-4,4-dimethyloctyl)hydantoin], the “Mean fall in blood pressure” value in data set [1] (3 mg/kg) came out at 22 mmHg. In data set [2] (general statement, no dose), the “antagonism of histamine induced broncho-constriction (PGE1-like)” value is “mimics the effect of PGE1 of antagonising histamine induced broncho-constriction”. Moreover, the “antagonism of histamine-induced broncho-constriction” value in data set [2] (intravenous injection 50 μg/kg, anaesthetised guinea-pigs) is listed as “completely anatagonise”. For the same molecule, in the data set with vascular smooth muscle, the “relaxation of vascular smooth muscle” value is recorded as “relaxation of vascular smooth muscle”.
On to `CCCCCCC(O)CCN1C(=O)NC(=O)C1CCCCCCC(=O)O` (stereo not shown) [Compound 6, 5-(6-Carboxyhexyl)-1-(3-hydroxynonyl)hydantoin], for which the “Mean fall in blood pressure” value in [1] (3 mg/kg) is given as 40 mmHg.
Turning to `CC(C)(C)C(O)CCN1C(=O)NC(=O)C1CCCCCCC(=O)O` (stereo not shown) [Compound 4 (m.p. 144°-146°), 5-(6-Carboxyhexyl)-1-(3-hydroxy-4,4-dimethylpentyl)hydantoin], the “relative potency with respect to PGE1 (inhibition of platelet aggregation)” value in data set [3] was 0.05 ×.
For `CCCCC[C@H](O)/C=C/[C@H]1[C@H](O)CC(=O)[C@@H]1C/C=C\CCCC(=O)O` [PGE2, reference compound], the “Mean fall in blood pressure” value was 28 mmHg in data set [1] (4 μg/kg) and 44 mmHg in [1] (16 μ/kg).
Turning to `O=C(O)CCCCCCC1C(=O)NC(=O)N1CCC(O)C1CCCCC1` (stereo not shown) [Compound 14, 5-(6-Carboxyhexyl)-1-(3-hydroxy-3-cyclohexylpropyl)hydantoin], the “Mean fall b.p. (±SD)” value in the data set with rat (setting [7]) is reported as 28 ± 5; with rat (setting [8]), 28 ± 6.5; with rat (setting [9]), 27 ± 7.5; with rat (setting [10]) it was 34 ± 3. Further, the “Mean rise hrt.rate (±S.D)” value turned out to be 6.5 ± 3 in the data set with rat (setting [7]), 44 ± 7 in the data set on rat (setting [8]), 11.5 ± 2.5 in the data set on rat (setting [9]) and 47.5 ± 2.5 with rat (setting [10]).
Take `CCCCCC(=O)CCN1C(=O)N(C)C(=O)C1CCCCCCC(=O)O` (stereo not shown) [Compound 90, 5-(6-Carboxyhexyl)-3-methyl-1-(3-oxooctyl)hydantoin]: the “reduction of aspirin-induced gastric lesions” value in [4] was “reduce the formation of aspirin-induced gastric lesions”. The “protection against aspirin-induced gastric ulceration” value in data set [4] (oral dose of 1 mg/kg) was found to be 80%. In data set [5] (general statement, no dose), the “inhibition of pentagastrin-induced gastric acid secretion” value was “inhibit pentagastrin-induced gastric acid secretion”.
In the case of `CCCCCC(=O)CCN1C(=O)NC(=O)C1CCCCCCC(=O)O` (stereo not shown) [Example 88, 5-(6-carboxyhexyl)-1-(3-oxooctyl)hydantoin], the “reduction of aspirin-induced gastric lesions” value in [4] is reported as “reduce the formation of aspirin-induced gastric lesions”. Besides, the “inhibition of pentagastrin-induced gastric acid secretion” value in [5] (general statement, no dose) was “inhibit pentagastrin-induced gastric acid secretion”.
Consider `CN1[C@@H]2CC[C@H]1C[C@@H](OC(=O)C(CO)c1ccccc1)C2` (stereo partly shown) [atropine, reference compound], for which, in the data set with rat (atropine 2 mg/kg i.v.), the “effect of concurrent atropine on hypotensive effect of Compound 14” value was “did not significantly affect” and the “effect of concurrent atropine on tachycardiac effect of Compound 14” value is “did not significantly affect”.
As to `CCCCCC(O)CCN1C(=O)NC(=O)C1CCCCCCC(=O)O` (stereo not shown) [Compound 2, 5-(6-Carboxyhexyl)-1-(3-hydroxyoctyl)hydantoin], the results for the “Mean fall in blood pressure” value in [1] (10 μg/kg) and in data set [1] (1 mg/kg) were 14 mmHg and 42 mmHg, respectively. In addition, the “reduction of aspirin-induced gastric lesions” value in data set [4] was “reduce the formation of aspirin-induced gastric lesions”. The “inhibition of pentagastrin-induced gastric acid secretion” value in data set [5] (general statement, no dose) is “inhibit pentagastrin-induced gastric acid secretion”; in [5] (intravenous dose of 30 μg/kg, rats), “completely inhibited”. In the data set with dogs, the “increase of urine volume” value is reported as “increase urine volume”.
As for `O=C(O)CCCCCCC1C(=O)NC(=O)N1CCCCOc1ccccc1` (stereo not shown) [Example 79b, 5-(6-carboxyhexyl)-1-(4-phenoxybutyl)hydantoin], in data set [4], the “reduction of aspirin-induced gastric lesions” value is “reduce the formation of aspirin-induced gastric lesions”. Also, in data set [5] (general statement, no dose), the “inhibition of pentagastrin-induced gastric acid secretion” value is on record as “inhibit pentagastrin-induced gastric acid secretion”.
In [3] (Homo sapiens, Platelet, 15 ng/ml, ADP 5 μM), `CCCCC[C@H](O)/C=C/[C@H]1[C@H](O)CC(=O)[C@@H]1CCCCCCC(=O)O` [PGE1, reference compound] displayed an inhibition at 0.015 µg/mL of 33%. Also, testing at 0.02 µg/mL in data set [3] (Homo sapiens, Platelet, 20 ng/ml, ADP 5 μM) gave an inhibition of 47%. In data set [3] (Homo sapiens, Platelet, 30 ng/ml, ADP 5 μM), this molecule showed an inhibition at 0.03 µg/mL of 63%. Also, 0.04 µg/mL produced 69% inhibition in [3] (Homo sapiens, Platelet, 40 ng/ml, ADP 5 μM).
For `CC(C)NCC(O)COc1cccc2ccccc12` (stereo not shown) [propranolol, reference compound], in the data set with rat (concurrent dose of propranolol), the “effect of concurrent propranolol on hypotensive action of Compound 14” value is “without significantly effecting the hypotensive action” and the “effect of concurrent propranolol on tachycardia caused by Compound 14” value is on record as “considerably reduced the tachycardia”.
Turning to `O=C(O)CCCCCCC1C(=O)NC(=O)N1CCC(O)C1CCC1` (stereo not shown) [Compound 11 (114°-116°), 5-(6-Carboxyhexyl)-1-(3-hydroxy-3-cyclobutylpropyl)hydantoin], in data set [3], the “relative potency with respect to PGE1 (inhibition of platelet aggregation)” value is given as 5.2 ×.
As to `CC(C)(Cc1ccccc1)C(O)CCN1C(=O)NC(=O)C1CCCCCCC(=O)O` (stereo not shown) [Example 1, 5-(6-carboxyhexyl)-1-(3-hydroxy-4,4-dimethyl-5-phenylpentyl)-hydantoin], in the data set with vascular smooth muscle, the “relaxation of vascular smooth muscle” value is “relaxation of vascular smooth muscle”.
Take `O=C(O)CCCCCCC1C(=O)NC(=O)N1CCC(O)C1CCCCC1` (stereo not shown) [Compound 14 (m.p. 96°-98°), 5-(6-Carboxyhexyl)-1-(3-hydroxy-3-cyclohexylpropyl)hydantoin]: the “relative potency with respect to PGE1 (inhibition of platelet aggregation)” value in [3] was determined as 16 ×. In the data set with rat (i.v., in words), the “hypotensive effect in the rat” value is listed as “substantial hypotensive effect” and the “tachycardia accompanying the hypotension” value is listed as “accompanied by tachycardia”.
As for `CCCCCC(O)CCN1C(=O)NC(=O)C1CCCCCCC(=O)O` (stereo not shown) [Compound 2 (m.p. 76°-78°), 5-(6-Carboxyhexyl)-1-(3-hydroxyoctyl)hydantoin], the “relative potency with respect to PGE1 (inhibition of platelet aggregation)” value in data set [3] was found to be 12.5 ×. Besides, in data set [6], the “reduction of electrically-induced arterial thrombosis” value was “reduce electrically-induced arterial thrombosis”.
Take `O=C(O)CCCCCCC1C(=O)NC(=O)N1CCC(O)C1CCCC1` (stereo not shown) [Compound 12 (m.p. 116-117°), 5-(6-Carboxyhexyl)-1-(3-hydroxy-3-cyclopentylpropyl)hydantoin]: in [3] (Homo sapiens, Platelet, 0.5 ng/ml, ADP 5 μM), 0.0005 µg/mL produced 25% inhibition. The inhibition at 0.001 µg/mL in data set [3] (Homo sapiens, Platelet, 1.0 ng/ml, ADP 5 μM) worked out at 51%. In addition, the inhibition at 0.002 µg/mL in [3] (Homo sapiens, Platelet, 2.0 ng/ml, ADP 5 μM) is 79%. This molecule also had an inhibition at 0.004 µg/mL in data set [3] (Homo sapiens, Platelet, 4.0 ng/ml, ADP 5 μM) of 94%. Besides, in [3], the “relative potency with respect to PGE1 (inhibition of platelet aggregation)” value is 12.5 ×.

A word on the inhibition: it is the relative decrease from the control value, in per cent. Lower therefore signals a response near the control.
